Measurements from US6964949B2, “Pharmaceutical compositions for promoting the growth of gram-positive bacilli and increasing the acidity in the vagina and the use thereof” (Shanghai Jiao Da Onlly Co., Ltd., priority 2000, dated 2005).

How the values were obtained:
Assay in all cases: Experiment Example 5: influence of composition pH (10.0% maltose), specimen culture, Gram smear
Format in all cases: cell-based
Conditions in all cases: 1.0% yeast extract, 1.6% xanthan gum
Gram-positive bacilli = tested on: Gram-positive bacilli
Source text: (§1) • (1)The preparation of the compositions: Maltose was used to prepare the following compositions according to the method mentioned above: • A. 10.0% maltose, 1.0% yeast extract, 1.6% xanthan gum, pH adjusted to 4.4; • B. 10.0% maltose, 1.0% yeast extract, 1.6% xanthan gum, pH adjusted to 4.8; • C. 10.0% maltose, 1.0% yeast extract, 1.6% xanthan gum, pH adjusted to 5.1; • D. 10.0% maltose, 1.0% yeast extract, 1.6% xanthan gum, pH adjusted to 5.4; • E. 10.0% maltose, 1.0% yeast extract, 1.6% xanthan gum, pH adjusted to 5.8; • F. 10.0% maltose, 1.0% yeast extract, 1.6% xanthan gum, pH adjusted to 6.4; • G. 10.0% maltose, 1.0% yeast extract, 1.6% xanthan gum, pH adjusted to 6.8; • H. 10.0% maltose, 1.0% yeast extract, 1.6% xanthan gum, pH adjusted to 7.2; • (2)The preparation of the test tubes: Compositions prepared above were filled into the test tubes, with each tube containing 5 ml, sterilized, and kept until use for experiments. • (3)Specimen suspension: Vaginal secretion was taken from one of the patients suffering from typical bacterial vaginosis with a cotton swab, then the swab was washed in 2 ml sterilized Trypcase-soy Broth immediately, and thus the specimen suspension was ready. […] Then the tubes were placed in a candle jar and cultivated at 37° C. After 24 hours and 48 hours' culture, culture samples were taken respectively from each of the tubes, then the Gram smears of the samples were observed and the pH values of culture samples were tested.

Gram-negative bacilli = tested on: Gram-negative bacilli
Source text: as §1

Gram-positive cocci = tested on: Gram-positive cocci
Source text: as §1

Gram-negative cocci = tested on: Gram-negative cocci
Source text: as §1

[1] = pH of the composition 4.4, 24 hours
[2] = pH of the composition 4.4, 48 hours
[3] = pH of the composition 4.8, 24 hours
[4] = pH of the composition 4.8, 48 hours
[5] = pH of the composition 5.1, 24 hours
[6] = pH of the composition 5.4, 24 hours
[7] = pH of the composition 5.8, 24 hours
[8] = pH of the composition 5.8, 48 hours
[9] = pH of the composition 6.4, 24 hours
[10] = pH of the composition 6.4, 48 hours
[11] = pH of the composition 6.8, 24 hours
[12] = pH of the composition 6.8, 48 hours
[13] = pH of the composition 7.2, 24 hours
[14] = pH of the composition 7.2, 48 hours
[15] = pH of the composition 5.1, 48 hours
[16] = pH of the composition 5.4, 48 hours

OC[C@H]1O[C@H](O[C@H]2[C@H](O)[C@@H](O)[C@H](O)O[C@@H]2CO)[C@H](O)[C@@H](O)[C@@H]1O [Maltose, maltose]
Bacteria G + b (Gram-positive bacilli), 24 hours culture (Gram-positive bacilli; [1]): G + b, −˜+ | Bacteria G + b (Gram-positive bacilli), 48 hours culture (Gram-positive bacilli; [2]): G + b, −˜+ | Bacteria G + b (Gram-positive bacilli), 24 hours culture (Gram-positive bacilli; [3]): G + b, + (1-9 bacteria per field of vision under oil-immersion lens) | Bacteria G + b (Gram-positive bacilli), 48 hours culture (Gram-positive bacilli; [4]): G + b, + (1-9 bacteria per field of vision under oil-immersion lens) | Bacteria G + b (Gram-positive bacilli), 24 hours culture (Gram-positive bacilli; [5]): G + b, + (1-9 bacteria per field of vision under oil-immersion lens) | Bacteria G + b (Gram-positive bacilli), 24 hours culture (Gram-positive bacilli; [6]): G + b, +++ (About 100 bacteria or more per field vision under oil-immersion lens, even uncountable) | Bacteria G + b (Gram-positive bacilli), 24 hours culture (Gram-positive bacilli; [7]): G + b, ++ (About 10-99 bacteria per field of vision under oil-immersion lens) | Bacteria G + b (Gram-positive bacilli), 48 hours culture (Gram-positive bacilli; [8]): G + b, +++ (About 100 bacteria or more per field vision under oil-immersion lens, even uncountable) | Bacteria G + b (Gram-positive bacilli), 24 hours culture (Gram-positive bacilli; [9]): G + b, + (1-9 bacteria per field of vision under oil-immersion lens) | Bacteria G + b (Gram-positive bacilli), 48 hours culture (Gram-positive bacilli; [10]): G + b, +++ (About 100 bacteria or more per field vision under oil-immersion lens, even uncountable) | Bacteria G + b (Gram-positive bacilli), 24 hours culture (Gram-positive bacilli; [11]): G + b, ++ (About 10-99 bacteria per field of vision under oil-immersion lens) | Bacteria G + b (Gram-positive bacilli), 48 hours culture (Gram-positive bacilli; [12]): G + b, +++ (About 100 bacteria or more per field vision under oil-immersion lens, even uncountable) | Bacteria G + b (Gram-positive bacilli), 24 hours culture (Gram-positive bacilli; [13]): G + b, ++ (About 10-99 bacteria per field of vision under oil-immersion lens) | Bacteria G + b (Gram-positive bacilli), 48 hours culture (Gram-positive bacilli; [14]): G + b, +++ (About 100 bacteria or more per field vision under oil-immersion lens, even uncountable) | Bacteria G − b (Gram-negative bacilli), 24 hours culture (Gram-negative bacilli; [1]): G − b, ++ (About 10-99 bacteria per field of vision under oil-immersion lens) | Bacteria G − b (Gram-negative bacilli), 48 hours culture (Gram-negative bacilli; [2]): G − b, ++ (About 10-99 bacteria per field of vision under oil-immersion lens) | Bacteria G − b (Gram-negative bacilli), 24 hours culture (Gram-negative bacilli; [3]): G − b, ++ (About 10-99 bacteria per field of vision under oil-immersion lens) | Bacteria G − b (Gram-negative bacilli), 48 hours culture (Gram-negative bacilli; [4]): G − b, ++ (About 10-99 bacteria per field of vision under oil-immersion lens) | Bacteria G − b (Gram-negative bacilli), 24 hours culture (Gram-negative bacilli; [5]): G − b, ++ (About 10-99 bacteria per field of vision under oil-immersion lens) | Bacteria G − b (Gram-negative bacilli), 48 hours culture (Gram-negative bacilli; [15]): G − b, ++ (About 10-99 bacteria per field of vision under oil-immersion lens) | Bacteria G − b (Gram-negative bacilli), 24 hours culture (Gram-negative bacilli; [6]): G − b, + (1-9 bacteria per field of vision under oil-immersion lens) | Bacteria G − b (Gram-negative bacilli), 48 hours culture (Gram-negative bacilli; [16]): G − b, ++ (About 10-99 bacteria per field of vision under oil-immersion lens) | Bacteria G − b (Gram-negative bacilli), 24 hours culture (Gram-negative bacilli; [7]): G − b, ++ (About 10-99 bacteria per field of vision under oil-immersion lens) | Bacteria G − b (Gram-negative bacilli), 48 hours culture (Gram-negative bacilli; [8]): G − b, ++ (About 10-99 bacteria per field of vision under oil-immersion lens) | Bacteria G − b (Gram-negative bacilli), 24 hours culture (Gram-negative bacilli; [9]): G − b, ++ (About 10-99 bacteria per field of vision under oil-immersion lens) | Bacteria G − b (Gram-negative bacilli), 48 hours culture (Gram-negative bacilli; [10]): G − b, ++ (About 10-99 bacteria per field of vision under oil-immersion lens) | Bacteria G − b (Gram-negative bacilli), 24 hours culture (Gram-negative bacilli; [11]): G − b, ++ (About 10-99 bacteria per field of vision under oil-immersion lens) | Bacteria G − b (Gram-negative bacilli), 48 hours culture (Gram-negative bacilli; [12]): G − b, ++ (About 10-99 bacteria per field of vision under oil-immersion lens) | Bacteria G − b (Gram-negative bacilli), 24 hours culture (Gram-negative bacilli; [13]): G − b, + (1-9 bacteria per field of vision under oil-immersion lens) | Bacteria G − b (Gram-negative bacilli), 48 hours culture (Gram-negative bacilli; [14]): G − b, ++ (About 10-99 bacteria per field of vision under oil-immersion lens) | Bacteria G + c (Gram-positive cocci), 24 hours culture (Gram-positive cocci; [1]): G + c, − (No or less than one bacterium per field of version under oil-immersion lens) | Bacteria G + c (Gram-positive cocci), 48 hours culture (Gram-positive cocci; [2]): G + c, − (No or less than one bacterium per field of version under oil-immersion lens) | Bacteria G + c (Gram-positive cocci), 24 hours culture (Gram-positive cocci; [3]): G + c, + (1-9 bacteria per field of vision under oil-immersion lens) | Bacteria G + c (Gram-positive cocci), 48 hours culture (Gram-positive cocci; [4]): G + c, + (1-9 bacteria per field of vision under oil-immersion lens) | Bacteria G + c (Gram-positive cocci), 24 hours culture (Gram-positive cocci; [5]): G + c, + (1-9 bacteria per field of vision under oil-immersion lens) | Bacteria G + c (Gram-positive cocci), 48 hours culture (Gram-positive cocci; [15]): G + c, ++ (About 10-99 bacteria per field of vision under oil-immersion lens) | Bacteria G + c (Gram-positive cocci), 24 hours culture (Gram-positive cocci; [6]): G + c, + (1-9 bacteria per field of vision under oil-immersion lens) | Bacteria G + c (Gram-positive cocci), 48 hours culture (Gram-positive cocci; [16]): G + c, − (No or less than one bacterium per field of version under oil-immersion lens) | Bacteria G + c (Gram-positive cocci), 24 hours culture (Gram-positive cocci; [7]): G + c, + (1-9 bacteria per field of vision under oil-immersion lens) | Bacteria G + c (Gram-positive cocci), 48 hours culture (Gram-positive cocci; [8]): G + c, + (1-9 bacteria per field of vision under oil-immersion lens) | Bacteria G + c (Gram-positive cocci), 24 hours culture (Gram-positive cocci; [9]): G + c, + (1-9 bacteria per field of vision under oil-immersion lens) | Bacteria G + c (Gram-positive cocci), 48 hours culture (Gram-positive cocci; [10]): G + c, + (1-9 bacteria per field of vision under oil-immersion lens) | Bacteria G + c (Gram-positive cocci), 24 hours culture (Gram-positive cocci; [11]): G + c, − (No or less than one bacterium per field of version under oil-immersion lens) | Bacteria G + c (Gram-positive cocci), 48 hours culture (Gram-positive cocci; [12]): G + c, + (1-9 bacteria per field of vision under oil-immersion lens) | Bacteria G + c (Gram-positive cocci), 24 hours culture (Gram-positive cocci; [13]): G + c, − (No or less than one bacterium per field of version under oil-immersion lens) | Bacteria G + c (Gram-positive cocci), 48 hours culture (Gram-positive cocci; [14]): G + c, − (No or less than one bacterium per field of version under oil-immersion lens) | Bacteria G − c (Gram-negative cocci), 24 hours culture (Gram-negative cocci; [1]): G − c, − (No or less than one bacterium per field of version under oil-immersion lens) | Bacteria G − c (Gram-negative cocci), 48 hours culture (Gram-negative cocci; [2]): G − c, − (No or less than one bacterium per field of version under oil-immersion lens) | Bacteria G − c (Gram-negative cocci), 24 hours culture (Gram-negative cocci; [3]): G − c, − (No or less than one bacterium per field of version under oil-immersion lens) | Bacteria G − c (Gram-negative cocci), 48 hours culture (Gram-negative cocci; [4]): G − c, − (No or less than one bacterium per field of version under oil-immersion lens) | Bacteria G − c (Gram-negative cocci), 24 hours culture (Gram-negative cocci; [5]): G − c, − (No or less than one bacterium per field of version under oil-immersion lens) | Bacteria G − c (Gram-negative cocci), 48 hours culture (Gram-negative cocci; [15]): G − c, − (No or less than one bacterium per field of version under oil-immersion lens) | Bacteria G − c (Gram-negative cocci), 24 hours culture (Gram-negative cocci; [6]): G − c, − (No or less than one bacterium per field of version under oil-immersion lens) | Bacteria G − c (Gram-negative cocci), 48 hours culture (Gram-negative cocci; [16]): G − c, − (No or less than one bacterium per field of version under oil-immersion lens) | Bacteria G − c (Gram-negative cocci), 24 hours culture (Gram-negative cocci; [7]): G − c, − (No or less than one bacterium per field of version under oil-immersion lens) | Bacteria G − c (Gram-negative cocci), 48 hours culture (Gram-negative cocci; [8]): G − c, − (No or less than one bacterium per field of version under oil-immersion lens) | Bacteria G − c (Gram-negative cocci), 24 hours culture (Gram-negative cocci; [9]): G − c, − (No or less than one bacterium per field of version under oil-immersion lens) | Bacteria G − c (Gram-negative cocci), 48 hours culture (Gram-negative cocci; [10]): G − c, − (No or less than one bacterium per field of version under oil-immersion lens) | Bacteria G − c (Gram-negative cocci), 24 hours culture (Gram-negative cocci; [11]): G − c, − (No or less than one bacterium per field of version under oil-immersion lens) | Bacteria G − c (Gram-negative cocci), 48 hours culture (Gram-negative cocci; [12]): G − c, − (No or less than one bacterium per field of version under oil-immersion lens) | Bacteria G − c (Gram-negative cocci), 24 hours culture (Gram-negative cocci; [13]): G − c, − (No or less than one bacterium per field of version under oil-immersion lens) | Bacteria G − c (Gram-negative cocci), 48 hours culture (Gram-negative cocci; [14]): G − c, − (No or less than one bacterium per field of version under oil-immersion lens)
